Patent publication US4435404A, “Carbostyril derivatives” (priority 1980, dated 1984)

Key:
[1] = target: T1, cyclic AMP phosphodiesterase (Oryctolagus cuniculus, UniProt G1ST54); experiment: Obstructive action against cyclic AMP phosphodiesterase; type: biochemical; conditions: rabbit platelet enzyme, 30° C., 20 minutes
T1 construct: the supernatant was collected to use it as a crude enzyme solution; from tissue; host or cells: rabbit platelets (from platelet-rich plasma)
T1 sequence (G1ST54 1-1128): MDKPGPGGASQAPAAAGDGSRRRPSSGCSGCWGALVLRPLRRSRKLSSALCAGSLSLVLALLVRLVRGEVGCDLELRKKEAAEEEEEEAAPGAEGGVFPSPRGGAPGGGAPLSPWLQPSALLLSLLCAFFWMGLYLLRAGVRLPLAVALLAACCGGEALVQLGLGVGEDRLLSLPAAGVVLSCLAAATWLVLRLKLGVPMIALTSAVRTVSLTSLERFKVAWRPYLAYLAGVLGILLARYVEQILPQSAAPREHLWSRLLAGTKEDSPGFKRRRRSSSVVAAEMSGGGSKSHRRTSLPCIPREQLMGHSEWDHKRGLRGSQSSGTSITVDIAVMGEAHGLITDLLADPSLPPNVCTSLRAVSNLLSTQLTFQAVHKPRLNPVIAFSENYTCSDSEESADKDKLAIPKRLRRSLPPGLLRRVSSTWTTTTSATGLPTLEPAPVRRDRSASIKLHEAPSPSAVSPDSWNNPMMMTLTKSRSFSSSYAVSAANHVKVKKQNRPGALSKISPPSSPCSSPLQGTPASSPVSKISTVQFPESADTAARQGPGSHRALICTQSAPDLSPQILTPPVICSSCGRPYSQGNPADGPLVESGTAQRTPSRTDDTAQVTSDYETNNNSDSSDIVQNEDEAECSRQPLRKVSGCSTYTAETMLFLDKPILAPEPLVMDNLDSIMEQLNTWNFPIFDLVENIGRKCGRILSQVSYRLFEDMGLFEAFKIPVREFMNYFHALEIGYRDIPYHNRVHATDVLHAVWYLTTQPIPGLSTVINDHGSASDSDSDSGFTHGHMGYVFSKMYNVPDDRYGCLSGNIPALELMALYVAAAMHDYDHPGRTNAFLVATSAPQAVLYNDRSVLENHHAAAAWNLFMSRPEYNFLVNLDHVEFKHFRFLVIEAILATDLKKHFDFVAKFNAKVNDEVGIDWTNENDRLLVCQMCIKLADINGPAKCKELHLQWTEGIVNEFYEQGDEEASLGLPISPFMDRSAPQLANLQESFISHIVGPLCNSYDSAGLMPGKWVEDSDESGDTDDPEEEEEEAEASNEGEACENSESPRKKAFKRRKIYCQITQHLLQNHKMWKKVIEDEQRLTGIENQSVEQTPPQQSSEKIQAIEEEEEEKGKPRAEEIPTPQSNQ
Description: That is, for determining the obstructive activity against cyclic AMP phosphodiesterase, 10 ml of a solution obtained by adding 1 mmol of MgCl2 into 50 mmol of tris-hydrochloric acid buffer with pH 7.4 was added to the platelets obtained by further centrifuging the above-said rabbit PRP at 3,000 r.p.m. for 10 minutes, and the suspended platelets were ground by a Teflon potter type homogenizer. This was followed by two times of freezing and thawing treatment and 300-second fracturing with 200 watt supersonic waves. After additional 60-minute centrifugation with 100,000 G, the supernatant was collected to use it as a crude enzyme solution.
10 Milliliters of this crude buffer solution was added to a 1.5×20 cm DEAE-cellulose column which has previously been buffered with 50 mM of tris-acetate buffer (pH 6.0), followed by washing and elution with 30 ml of 50 mM tris-acetate buffer, and this buffer solution was subjected to linear gradient elution with 0 to 0.5 moles of sodium acetate-tris-acetatebuffer (total amount of elute was 300 ml.). The flow rate was 0.5 ml/min, and 5 ml of each fraction was batched out. […] This fraction was used as cyclic AMP phosphodiesterase.
0.1 Milliliter of an aqueous solution of each test compound of a specified concentration was mixed with 40 mmol of tris-hydrochloric acid buffer (pH 8.0, containing 50 μg of cow serum albumin and 4 mmol of MgCl2) containing predetermined 1.0 μmol of cyclic AMP (tritium cyclic AMP), and 0.2 ml of this mixed solution was used as substrate solution.
0.2 Milliliter of the above-prepared cyclic AMP phosphodiesterase of a predetermined concentration was added to said substrate solution and the mixture was reacted at 30° C. for 20 minutes, producing tritium 5'-AMP from the tritium cyclic AMP.
The reaction system was then immersed in boiling water for 2 minutes to stop the reaction, and then this reaction solution was cooled in ice water and, for converting the produced tritium 5'-AMP into tritium adenosine, the solution was added with 0.05 ml (1 mg/ml) of snake poison as 5'-nucleotidase and reacted at 30° C. for 10 minutes. The whole amount of this reaction solution was then added to a cation exchange resin (AG 500 W×4, 200-400 meshes, manufactured by Bio-Rad Co., column size: 0.5×1.5 cm), and the produced tritium anodesine alone was allowed to combine, washed with 6 ml of distilled water and eluted with 1.5 ml of 3 N-ammonia water. The whole quantity of the elutant was added with 10 ml of a triton-toluene type scintillator and the produced tritium adenosine was measured by a liquid scintillation counter to determine the phosphodiesterase activity.
In this way, the phosphodiesterase activation value (Vs) of the test compounds of the respective concentrations was determined, and the phosphodiesterase obstruction rate (%) was determined from said activation value (Vs) and control value (Vc) (obtained from water not containing any test compound) from the following formula: [formula] Known 1-methyl-3-isobutylxanthine was used as control.

[2] = test system: bastard dog; experiment: Increasing effect of cerebral blood flow; type: in vivo; conditions: profunda femoris vein
Description: Thus, a bastard dog (male, 12-20 kg of body weight) was fixed in a prone (position) and was anesthetized with 20 mg/kg of pentobarbital sodium and made forced breathing to kept the frequency of respiration at 20 times/minutes. Then, the skull was bared and the surface bone was removed to expose the venous sinus by using grinder and the venous blood was took out from the venas which was cannulizated. The amount of venous blood flow was measured by using an electromagnetic blood flow meter and next measured by using drop-counter by measuring the number of drops of blood per 10 seconds.
The increasing effect of cerebral blood flow was calculated by comparing the number of blood drops in 30 seconds at the peak of increasement shown before and after the administration of compound to be tested. The each of compounds to be tested was dissolved in dimethylformamide and diluted with physiological saline solution and administered through a cannule being inserted into the profunda femoris vein.

[3] = test system: collagen-induced aggregation in rabbit platelet; experiment: Inhibition effect on collagen-induced aggregation in rabbit platelet; type: cell-based; conditions: Oryctolagus cuniculus, Platelet, read-out: Inhibition effect on collagen-induced aggregation; for inhibition at 10 µM: concentration of the test compound solution 10^-5 mole; for inhibition at 1 µM: concentration of the test compound solution 10^-6 mole
Description: (§1) The platelet aggregation inhibitory effect is measured by using AG-II aggregometer (manufactured by Bryston Manufacturing Co.). The blood sample used for the test is a 1/9 (by volume) mixture of sodium citrate and whole blood collected from rabbit. Said sample is subjected to 10-minute centrifugal separation at 1,000 r.p.m. to obtain a platelet rich plasma (PRP). The thus obtained PRP is separated, and the remaining blood sample is further subjected to 15-minute centrifugal separation at 3,000 r.p.m. to obtain a platelet poor plasma (PPP).
(§2) The number of platelets in the PRP is counted by the Brecher-Clonkite Method, and the PRP is diluted with the PPP to prepare a PRP sample with platelet concentration of 300,000/mm^3 for the adenosine diphosphate (ADP)-induced aggregation test. There is also prepared a PRP sample with platelet concentration of 450,000/mm^3 for the collagen-induced aggregation test.
(§3) 0.6 Milliliter of said PRP sample is added into 0.01 ml of a solution of a test compound of a predetermined concentration and the mixture is placed in a 37° C. thermostat for one minute. Then 0.07 ml of an ADP or collagen solution is added to the mixture. Transmittance of this mixture is determined and the change of transmittance is recorded by using the aggregometer at stirrer speed of 1,100 r.p.m. […] The ADP solution is adjusted to a concentration of 7.5×10^-5 M, and the collagen solution is prepared by triturating 100 mg of collagen with 5 ml of said buffer and the supernatant is used as collagen inducer. Acetylsalicylic acid is used as control for the ADP-induced aggregation test and the collagen-induced aggregation test, respectively. The platelet aggregation inhibitory effect is measured in terms of percent inhibition with respect to the aggregation rate of the controls. The aggregation rate is calculated from the following formula:
(§4) Aggregation rate=[(c-a)/(b-a)]×100
(§5) b: transmittance of PRP containing a test compound and an aggregation inducer

[4] = Acute Toxicity Test; conditions: mouse, in vivo; male mice, oral administration
Description: The test compounds were administered orally to the mice and LD50 (mg/kg) of the compounds was determined.

[5] = test system: ADP-induced aggregation in rabbit platelet; experiment: Inhibition effect on ADP-induced aggregation in rabbit platelet; type: cell-based; conditions: Oryctolagus cuniculus, Platelet; for inhibition at 100 µM: concentration of the test compound solution 10^-4 mole; for inhibition at 10 µM: concentration of the test compound solution 10^-5 mole; for inhibition at 1 µM: concentration of the test compound solution 10^-6 mole
Description: as §1, §2, §3, §4, §5

[6] = read-out: Inhibition effect on ADP-induced aggregation

Compound `CC(=O)OC1CCC(N(C)C(=O)CCCOc2ccc3[nH]c(=O)ccc3c2)CC1` (stereo not drawn) [No. 26, 6-{3-[N--Methyl-N--(4-acetyloxycyclohexyl)aminocarbonyl]propoxy}carbostyril, reference compound] has an IC50 [1] of 6.6 nM.
In the case of “6-{4-[N-(2-Hydroxybutyl)-N-cyclohexylaminocarbonyl]butoxy}carbostyril [Example 13]”, the “Increasing effect of cerebral blood flow” value ([2]; dosage 30 μg/kg) is reported as 98.9%.
In the case of `CCCCN(CC1CCCCO1)C(=O)CCCCOc1ccc2c(c1)CCC(=O)N2` (stereo not drawn) [No. 12, 6-{4-[N-Butyl-N-(2-tetrahydropyranylmethyl)aminocarbonyl]butoxy}-3,4-dihydrocarbostyril], the inhibition at 10 µM [3] is reported as 100%, the inhibition at 1 µM [3] is reported as 10.3% and the LD50 [4] is reported as greater than 1000 mg/kg. For the same compound, the inhibition at 100 µM [5] was 100%, the inhibition at 10 µM [5, 6] was 40.2% and the inhibition at 1 µM [5, 6] was 8.3%. It also gave an IC50 [1] of 25 nM.
Work on `O=C(OCCN(C(=O)CCCOc1ccc2[nH]c(=O)ccc2c1)C1CCCCC1)c1ccccc1` [No. 10, 6-{3-[N-(2-Benzoyloxyethyl)-N-cyclohexylaminocarbonyl]propoxy}carbostyril] yielded an inhibition at 10 µM [3] of 100%, an inhibition at 1 µM [3] of 100% and an inhibition at 0.1 µM ([3]; concentration of the test compound solution 10^-7 mole) of 56.7%. For the same compound, the LD50 [4] was greater than 1000 mg/kg, the inhibition at 100 µM [5] was 100% and the inhibition at 10 µM [5, 6] was 80.7%. The inhibition at 1 µM [5, 6] was 42.6%, the inhibition at 0.1 µM ([5]; concentration of the test compound solution 10^-7 mole, read-out: Inhibition effect on ADP-induced aggregation) was 7.1% and the IC50 [1] was 12 nM.
For “6-{3-[N-(2-Hydroxyethyl)-N-cyclooctylaminocarbonyl]propoxy}-3,4-dihydrocarbostyril [Example 5]”, the “Increasing effect of cerebral blood flow” value ([2]; dosage 100 μg/kg) was 43.5%.
Compound `CCN(C(=O)CCCOc1ccc2[nH]c(=O)ccc2c1)c1ccccn1` [No. 3, 6-{3-[N-Ethyl-N-(2-pyridyl)aminocarbonyl]propoxy}carbostyril] has an inhibition at 10 µM [3] of 100%, an inhibition at 1 µM [3] of 14% and an LD50 [4] greater than 1000 mg/kg. For the same compound, the inhibition at 100 µM [5] was 100%, the inhibition at 10 µM [5, 6] was 31% and the inhibition at 1 µM [5, 6] was 10%. It also gave an IC50 [1] of 400 nM.
Work on `CC(C)Cn1c(=O)n(C)c(=O)c2[nH]cnc21` [1-Methyl-3-isobutylxanthine, 1-methyl-3-isobutylxanthine, reference compound] yielded an IC50 [1] of 540 nM.
For `COc1ccc(Cc2nccc3cc(OC)c(OC)cc23)cc1OC` [Papaverin, papaverine, reference compound], the “Increasing effect of cerebral blood flow” value ([2]; dosage 1,000 μg/kg) was 86.0%.
With `CN(Cc1ccco1)C(=O)CCCOc1ccc2[nH]c(=O)ccc2c1` [No. 4, 6-{3-[N-Methyl-N-(2-furylmethyl)aminocarbonyl]propoxy}carbostyril] the inhibition at 100 µM ([3]; concentration of the test compound solution 10^-4 mole) was 92.5%, the inhibition at 10 µM [3] was 35.8% and the inhibition at 1 µM [3] was 4%. It also gave an LD50 [4] greater than 1000 mg/kg, an inhibition at 100 µM [5] of 85.7% and an inhibition at 10 µM [5, 6] of 13.7%. For the same compound, the IC50 [1] was 600 nM.
For `O=C1CCc2cc(OCCCC(=O)N3CCN(Cc4ccccc4)CC3)ccc2N1` [No. 15, 6-[3-(4-Benzyl-1-piperazinylcarbonyl)propoxy]-3,4-dihydrocarbostyril], the inhibition at 10 µM [3] was 98.8%, the inhibition at 1 µM [3] was 24.6% and the LD50 [4] was greater than 1000 mg/kg. It also gave an inhibition at 100 µM [5] of 100%, an inhibition at 10 µM [5, 6] of 100% and an inhibition at 1 µM [5, 6] of 25.8%. For the same compound, the IC50 [1] was 40 nM.
With “6-{3-[N-(4-Hydroxybutyl)-N-cyclohexylaminocarbonyl]propoxy}carbostyril [Example 7]” the “Increasing effect of cerebral blood flow” value ([2]; dosage 300 μg/kg) was 80.2%.
With “6-{4-[N-(2,3-Dihydroxypropyl)-N-cyclohexylaminocarbonyl]butoxy}carbostyril [Example 14]” the “Increasing effect of cerebral blood flow” value ([2]; dosage 100 μg/kg) was 51.6%.
In the case of “6-{4-[N-(2-Hydroxybutyl)-N-cyclopentylaminocarbonyl]butoxy}-3,4-dihydrocarbostyril [Example 12]”, the “Increasing effect of cerebral blood flow” value ([2]; dosage 300 μg/kg) is reported as 73.5%.
